According to PubChem BioAssay AID248 (DTP/NCI, 2004):
Several values for one entry are separate records, joined by “and”; a condition that tells them apart may be missing. Equal entries are not always repeated. Toxic doses and inconclusive results are not listed. Rule as the data show it: active = T/C of 150% or more; inactive = T/C below 125%.

Test system: L1210 leukemia ip in BDF1 mice, survival T/C
Assay: NCI In Vivo Anticancer Drug Screen. Data for tumor model L1210 Leukemia (intraperitoneal) in B6D2F1 (BDF1) mice
Conditions: endpoint: mean survival time, higher = longer survival
In short: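 Ratio derived from survival: compound-dosed mice over vehicle-dosed mice, all bearing a transplantable tumor.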

[1] = dose: 50.0 mg/kg/injection, schedule: Q01DX009 (ip), vehicle: saline with Tween-80
[2] = dose: 100.0 mg/kg/injection, schedule: Q01DX009 (ip), vehicle: saline with Tween-80
[3] = dose: 100.0 mg/kg/injection, schedule: Q01DX009 (ip), vehicle: saline
[4] = dose: 100.0 mg/kg/injection, schedule: Q04DX003 (ip), vehicle: saline with Tween-80
[5] = dose: 200.0 mg/kg/injection, schedule: Q01DX009 (ip), vehicle: saline with Tween-80
[6] = dose: 200.0 mg/kg/injection, schedule: Q01DX009 (ip), vehicle: saline
[7] = dose: 200.0 mg/kg/injection, schedule: Q04DX003 (ip), vehicle: saline with Tween-80
[8] = dose: 400.0 mg/kg/injection, schedule: Q01DX009 (ip), vehicle: saline
[9] = dose: 400.0 mg/kg/injection, schedule: Q04DX003 (ip), vehicle: saline with Tween-80
[10] = dose: 100.0 mg/kg/injection, schedule: Q01DX001 (ip), vehicle: saline
[11] = dose: 200.0 mg/kg/injection, schedule: Q01DX001 (ip), vehicle: saline
[12] = dose: 400.0 mg/kg/injection, schedule: Q01DX001 (ip), vehicle: saline
[13] = dose: 100.0 mg/kg/injection, schedule: Q04DX003 (ip), vehicle: saline
[14] = dose: 200.0 mg/kg/injection, schedule: Q04DX003 (ip), vehicle: saline
[15] = dose: 400.0 mg/kg/injection, schedule: Q04DX003 (ip), vehicle: saline
[16] = dose: 100.0 mg/kg/injection, schedule: Q01DX009 (ip), vehicle: Klucel (hydroxypropylcellulose) (HPC)
[17] = dose: 200.0 mg/kg/injection, schedule: Q01DX009 (ip), vehicle: Klucel (hydroxypropylcellulose) (HPC)
[18] = dose: 400.0 mg/kg/injection, schedule: Q01DX009 (ip), vehicle: Klucel (hydroxypropylcellulose) (HPC)

Measured: T/C

Cc1ccc(C)c(C(=O)CCC(=O)O)c1
inactive: dose: 25.0 mg/kg/injection, schedule: Q01DX009 (ip), vehicle: saline with Tween-80 100 % of control | [1] 96 % of control | [2] 105 % of control | [3] 95 % of control | [4] 91 % of control | [5] 94 % of control | [6] 95 % of control | [7] 92 % of control | [8] 95 % of control | [9] 97 % of control

c1ccc(NN(CN(Nc2ccccc2)c2ccccc2)c2ccccc2)cc1
inactive: dose: 100.0 mg/kg/injection, schedule: Q01DX001 (ip), vehicle: other 95 % of control | dose: 400.0 mg/kg/injection, schedule: Q01DX001 (ip), vehicle: other 89 % of control

O=C1CCc2ccccc2C(=O)C1c1ccc(Cl)cc1 (stereo not drawn)
inactive: [4] 90 % of control | [7] 97 % of control | [9] 93 % of control

CC(=O)Nc1ccc(C(=O)O)c(OC(C)=O)c1
inactive: dose: 100.0 mg/kg/injection, schedule: Q01DX001 (ip), vehicle: saline with Tween-80 92 % of control | dose: 200.0 mg/kg/injection, schedule: Q01DX001 (ip), vehicle: saline with Tween-80 96 % of control | dose: 400.0 mg/kg/injection, schedule: Q01DX001 (ip), vehicle: saline with Tween-80 97 % of control

CCCCC(=O)N/N=C\c1ccc(-c2ccccc2)cc1
inactive: [10] 93 % of control | [11] 96 % of control

CCOC(=O)C(Nc1ccc(SC)cc1)c1ccccc1 (stereo not drawn)
inactive: [10] 110 % of control | [11] 98 % of control | [12] 98 % of control

C=CCC(CC)C(=O)O (stereo not drawn)
inactive: [3] 104 % of control | [13] 100 % of control | [6] 96 % of control | [14] 97 % of control | [15] 97 % of control

CCCCCCCN(CCCCCCC)C(=O)N(C)C
inactive: dose: 100.0 mg/kg/injection, schedule: Q04DX002 (sc), vehicle: olive oil, sesame oil, peanut oil 104 % of control | dose: 200.0 mg/kg/injection, schedule: Q04DX002 (sc), vehicle: olive oil, sesame oil, peanut oil 107 % of control | dose: 400.0 mg/kg/injection, schedule: Q04DX002 (sc), vehicle: olive oil, sesame oil, peanut oil 114 % of control

COc1ccc(-n2c(=S)[nH]c3ccccc3c2=O)cc1
inactive: dose: 100.0 mg/kg/injection, schedule: Q01DX009 (ip), vehicle: other 107 % of control | [13] 95 % of control | dose: 200.0 mg/kg/injection, schedule: Q01DX009 (ip), vehicle: other 96 % of control | [14] 91 % of control | dose: 400.0 mg/kg/injection, schedule: Q01DX009 (ip), vehicle: other 102 % of control | [15] 91 % of control

CC(C)(C)CC(C)(C)N(CSc1ccc(Cl)cc1)CSc1ccc(Cl)cc1
inactive: [10] 100 % of control | [11] 93 % of control | [12] 87 % of control

CCCCn1c(C)cc2c(c1=O)COC(=O)C2(O)CC (stereo not drawn)
inactive: dose: 2.5 mg/kg/injection, schedule: Q04DX003 (ip), vehicle: saline 101 % of control | dose: 5.0 mg/kg/injection, schedule: Q04DX003 (ip), vehicle: saline 98 % of control | dose: 10.0 mg/kg/injection, schedule: Q04DX003 (ip), vehicle: saline 100 % of control | dose: 20.0 mg/kg/injection, schedule: Q04DX003 (ip), vehicle: saline 96 % of control | dose: 40.0 mg/kg/injection, schedule: Q04DX003 (ip), vehicle: saline 94 % of control

COc1ccc(C(=O)N/N=C/c2cccc([N+](=O)[O-])c2)cc1
inactive: dose: 100.0 mg/kg/injection, schedule: Q01DX001 (ip), vehicle: carboxymethylcellulose (CMC) 98 % of control | dose: 100.0 mg/kg/injection, schedule: Q01DX009 (ip), vehicle: carboxymethylcellulose (CMC) 90 % of control and 92 % of control | dose: 100.0 mg/kg/injection, schedule: Q04DX002 (ip), vehicle: other 98 % of control | dose: 100.0 mg/kg/injection, schedule: Q04DX003 (ip), vehicle: carboxymethylcellulose (CMC) 98 % of control | dose: 200.0 mg/kg/injection, schedule: Q01DX001 (ip), vehicle: carboxymethylcellulose (CMC) 97 % of control | dose: 200.0 mg/kg/injection, schedule: Q01DX009 (ip), vehicle: carboxymethylcellulose (CMC) 101 % of control and 90 % of control | dose: 200.0 mg/kg/injection, schedule: Q04DX002 (ip), vehicle: other 95 % of control | dose: 200.0 mg/kg/injection, schedule: Q04DX003 (ip), vehicle: carboxymethylcellulose (CMC) 98 % of control | dose: 400.0 mg/kg/injection, schedule: Q01DX001 (ip), vehicle: carboxymethylcellulose (CMC) 93 % of control | dose: 400.0 mg/kg/injection, schedule: Q01DX009 (ip), vehicle: carboxymethylcellulose (CMC) 95 % of control and 96 % of control | dose: 400.0 mg/kg/injection, schedule: Q04DX002 (ip), vehicle: other 95 % of control | dose: 400.0 mg/kg/injection, schedule: Q04DX003 (ip), vehicle: carboxymethylcellulose (CMC) 102 % of control

NC(=O)NOCC1NC(=O)NC1=O (stereo not drawn)
inactive: [3] 96 % of control | [6] 102 % of control | [8] 102 % of control

CCCCC(=O)c1ccc(OC)cc1
inactive: [16] 100 % of control | dose: 100.0 mg/kg/injection, schedule: Q04DX003 (ip), vehicle: Klucel (hydroxypropylcellulose) (HPC) 96 % of control | [17] 105 % of control | dose: 200.0 mg/kg/injection, schedule: Q04DX003 (ip), vehicle: Klucel (hydroxypropylcellulose) (HPC) 102 % of control | [18] 102 % of control | dose: 400.0 mg/kg/injection, schedule: Q04DX003 (ip), vehicle: Klucel (hydroxypropylcellulose) (HPC) 93 % of control

c1ccc([P+](CC2CCCO2)(c2ccccc2)c2ccccc2)cc1 (stereo not drawn)
inactive: [10] 113 % of control

COc1ccc(/C=N/NC(=O)CNC(=O)c2ccc(Cl)cc2Cl)cc1OC
inactive: [1] 91 % of control | [2] 86 % of control | [5] 86 % of control

CN(C)/N=C/c1ccccc1C(=O)O
inactive: dose: 50.0 mg/kg/injection, schedule: Q04DX003 (ip), vehicle: saline with Tween-80 101 % of control | [4] 97 % of control | [7] 96 % of control | [9] 106 % of control

C[Se]c1ncnc2c1ccn2C1OC(CO)C(O)C1O (stereo not drawn)
inactive: dose: 12.5 mg/kg/injection, schedule: Q01DX005 (ip), vehicle: saline 104 % of control | dose: 25.0 mg/kg/injection, schedule: Q01DX005 (ip), vehicle: saline 106 % of control | dose: 50.0 mg/kg/injection, schedule: Q01DX005 (ip), vehicle: saline 102 % of control

COc1ccccc1NC(=O)NCc1cc(C)ccc1C
inactive: [16] 93 % of control | [17] 88 % of control | [18] 93 % of control

Clc1ccc(C2NC(c3ccc(Cl)cc3)NC(c3ccc(Cl)cc3)N2)cc1 (stereo not drawn)
inactive: dose: 75.0 mg/kg/injection, schedule: Q01DX001 (ip), vehicle: saline 95 % of control | dose: 150.0 mg/kg/injection, schedule: Q01DX001 (ip), vehicle: saline 95 % of control | dose: 300.0 mg/kg/injection, schedule: Q01DX001 (ip), vehicle: saline 90 % of control
